{"source": "patent US9963451B2", "about": "“Fused ring pyrimidine compound and pest control agent containing the same” (Mitsui Chemicals Agro, Inc., priority 2013, dated 2018)", "assay_type_in_all_cases": "in vivo", "key": {"Laodelphax striatellus": {"tested_on": "Laodelphax striatellus", "assay": "whole plant or invertebrate", "conditions": "for pest or weed control at 3 ppm / pest or weed control at 1 ppm: Laodelphax striatellus, in Oryza sativa, 144 h, read-out: Insect death ratio (%)", "procedure": "Insecticidal Test Against Laodelphax striatellus\nA chemical solution diluted to have a pre-determined concentration was sprayed to young rice plant (breed: Koshihikari) followed by air drying. Then, it was added to a glass test tube (diameter of 3 cm and height of 10 cm) added with water together with ten 3-stage larvae of Laodelphax striatellus. The tube was then covered. The number of living insects was determined after 6 days and the dead insect ratio was calculated. There were two series, i.e., 10 insects per group. Meanwhile, in Table 29, when combination of two types of test chemicals are used (i.e., A and B), the combination of the two types was described as A+B, and in the concentration column (ppm), it was described as concentration of A+concentration of B."}, "Chilo suppressalis": {"tested_on": "Chilo suppressalis", "assay": "Test Example 10: insecticidal test against Chilo suppressalis (rice stem dip, single and combined chemicals)", "conditions": "after 6 days", "procedure": "Insecticidal Test Against Chilo suppressalis\nA stem part was cut from a rice plant (breed: Koshihikari) cultivated in water and it was immersed in a chemical solution which has been diluted to have a pre-determined concentration. After air drying, it was put into a 9 cm polyethylene cup having a water-wetted filter paper laid on the bottom thereof, and 3-stage larvae of Chilo suppressalis were released and covered. They were left to stand in an incubator at 25° C., and the numbers of living insects and dead insects were examined after 6 days. There were two series, i.e., 5 insects per group. Meanwhile, in Table 30, when combination of two types of test chemicals are used (i.e., A and B), the combination of the two types was described as A+B, and in the concentration column (ppm), it was described as concentration of A+concentration of B."}, "Plutella xylostella": {"tested_on": "Plutella xylostella", "assay": "Test Example 4: insecticidal test against Plutella xylostella (cabbage leaf dip)", "conditions": "foliar, 144 h, read-out: insect death ratio", "procedure": "Insecticidal Test Against Plutella xylostella\nA piece of a cabbage leaf was immersed for 30 seconds in a chemical solution in which the test compound had been added at a predetermined concentration, and air dried, and then put into a 7 cm polyethylene cup having a filter paper laid on the bottom thereof, and five 3-stage larvae of Plutella xylostella were released. They were left to stand in an incubator at 25° C., and the numbers of living insects and dead insects were examined after 6 days. There was no series."}, "[1]": {"conditions": "Chilo suppressalis, 144 h, 1 ppm, read-out: Insect death ratio (%)"}, "[2]": {"conditions": "Chilo suppressalis, 144 h, read-out: Insect death ratio (%)"}, "[3]": {"conditions": "concentration of 1000 ppm, cabbage leaf dip, 3-stage larvae, 25° C., after 6 days"}}, "note": "Structures can show the parent of a compound that is named as a salt. Where two headings read alike, the source gives them in different places.", "data": [{"compound": "COP(=O)(NC(C)=O)SC", "note": "(centres unmarked) [Acephate, acephate]", "values": [{"measurement": "pest or weed control at 3 ppm", "setting": "Laodelphax striatellus", "result": 20, "unit": "%"}]}, {"compound": "CC(C)N1C(=O)N(c2ccccc2)CS/C1=N\\C(C)(C)C", "note": "[Buprofezin, buprofezin]", "values": [{"measurement": "pest or weed control at 1 ppm", "setting": "Laodelphax striatellus; after 6 days", "result": 70, "unit": "%"}]}, {"compound": "CN(C)C(CSC(N)=O)CSC(N)=O", "note": "[Cartap, Cartap hydrochloride]", "values": [{"measurement": "pest or weed control at 300 ppm", "setting": "Chilo suppressalis; Chilo suppressalis, 144 h, 300 ppm, read-out: Insect death ratio (%)", "result": 90, "unit": "%"}]}, {"compound": "CNC(=O)c1cc(Cl)cc(C)c1NC(=O)c1cc(Br)nn1-c1ncccc1Cl", "note": "[Chlorantraniliprole, chlorantraniliprole]", "values": [{"measurement": "pest or weed control at 1 ppm", "setting": "Chilo suppressalis; [1]", "result": 80, "unit": "%"}]}, {"compound": "CNC(=O)c1cc(C#N)cc(C)c1NC(=O)c1cc(Br)nn1-c1ncccc1Cl", "note": "[Cyantraniliprole, cyantraniliprole]", "values": [{"measurement": "pest or weed control at 1 ppm", "setting": "Chilo suppressalis; [1]", "result": 80, "unit": "%"}]}, {"compound": "CN(C(=O)c1ccccc1)c1cccc(C(=O)Nc2c(Br)cc(C(F)(C(F)(F)F)C(F)(F)F)cc2C(F)(F)F)c1F", "note": "[DD-1]", "values": [{"measurement": "pest or weed control at 0.1 ppm", "setting": "Chilo suppressalis; [2]", "result": 90, "unit": "%"}]}, {"compound": "CN(C(=O)c1ccc(F)cc1)c1cccc(C(=O)Nc2c(I)cc(C(F)(C(F)(F)F)C(F)(F)F)cc2C(F)(F)F)c1F", "note": "[DD-2]", "values": [{"measurement": "pest or weed control at 0.1 ppm", "setting": "Chilo suppressalis; [2]", "result": 100, "unit": "%"}]}, {"compound": "O=C(Nc1c(I)cc(C(F)(C(F)(F)F)C(F)(F)F)cc1C(F)(F)F)c1cccc(NC(=O)c2cccnc2Cl)c1", "note": "[DD-3]", "values": [{"measurement": "pest or weed control at 0.1 ppm", "setting": "Chilo suppressalis; [2]", "result": 100, "unit": "%"}]}, {"compound": "CC[S+]([O-])c1c(C#N)nn(-c2c(Cl)cc(C(F)(F)F)cc2Cl)c1N", "note": "(centres unmarked) [Ethiprole, ethiprole]", "values": [{"measurement": "pest or weed control at 3 ppm", "setting": "Laodelphax striatellus; 3 ppm, after 6 days", "result": 20, "unit": "%"}]}, {"compound": "CCOc1ccc(C(C)(C)COCc2cccc(Oc3ccccc3)c2)cc1", "note": "[Ethofenprox, ethofenprox]", "values": [{"measurement": "Insect death ratio (%)", "setting": "Chilo suppressalis; 100 ppm", "result": 100, "unit": "%"}, {"measurement": "Insect death ratio (%)", "setting": "Laodelphax striatellus; 30 ppm, after 6 days", "result": 40, "unit": "%"}]}, {"compound": "N#Cc1nn(-c2c(Cl)cc(C(F)(F)F)cc2Cl)c(N)c1[S+]([O-])C(F)(F)F", "note": "(centres unmarked) [Fipronil, fipronil]", "values": [{"measurement": "pest or weed control at 1 ppm", "setting": "Laodelphax striatellus; after 6 days", "result": 70, "unit": "%"}]}, {"compound": "Cc1cc(C(F)(C(F)(F)F)C(F)(F)F)ccc1NC(=O)c1cccc(I)c1C(=O)NC(C)(C)CS(C)(=O)=O", "note": "[Flubendiamide, flubendiamide]", "values": [{"measurement": "pest or weed control at 1 ppm", "setting": "Chilo suppressalis; [1]", "result": 80, "unit": "%"}]}, {"compound": "Cc1cc(O)no1", "note": "[Hydroxyisoxazole, hydroxyisoxazole]", "values": [{"measurement": "Insect death ratio (%)", "setting": "Laodelphax striatellus; 600 ppm, after 6 days", "result": 0, "unit": "%"}]}, {"compound": "Cc1cc(=O)n2nc(SCc3cccc(C(F)(F)F)c3)nc2n1Cc1ccc(Cl)nc1", "note": "[compound 16]", "values": [{"measurement": "pest or weed control at 1000 ppm", "setting": "Plutella xylostella; [3]", "result": "≥ 70", "unit": "%"}]}, {"compound": "Cc1cc(=O)n2nc(SCCC(F)(F)F)nc2n1Cc1ccc(Cl)nc1", "note": "[compound 22]", "values": [{"measurement": "pest or weed control at 1000 ppm", "setting": "Plutella xylostella", "result": "≥ 70", "unit": "%"}]}, {"compound": "Cc1cc(=O)n2nc(SCCCC(F)(F)F)nc2n1Cc1ccc(Cl)nc1", "note": "[compound 23]", "values": [{"measurement": "pest or weed control at 1000 ppm", "setting": "Plutella xylostella", "result": "≥ 70", "unit": "%"}]}, {"compound": "CSc1nc2n(Cc3ccc(Cl)nc3)c(C)cc(=S)n2n1", "note": "[compound 24, 4-((6-chloropyridin-3-yl)methyl)-5-methyl-2-(methylthio)-[1,2,4]triazolo[1,5-a]pyrimidin-7(4H)-thione]", "values": [{"measurement": "pest or weed control at 1000 ppm", "setting": "Plutella xylostella", "result": "≥ 70", "unit": "%"}]}, {"compound": "CCc1c(C)n(Cc2ccc(Cl)nc2)c2nc(SC)nn2c1=O", "note": "[compound 25]", "values": [{"measurement": "pest or weed control at 1000 ppm", "setting": "Plutella xylostella", "result": "≥ 70", "unit": "%"}]}, {"compound": "Cc1cc(=O)n2nc(-c3ccccc3F)nc2n1Cc1ccc(Cl)nc1", "note": "[compound 28]", "values": [{"measurement": "pest or weed control at 1000 ppm", "setting": "Plutella xylostella", "result": "≥ 70", "unit": "%"}]}, {"compound": "CCSc1nc2n(Cc3ccc(Cl)nc3)c(C)cc(=O)n2n1", "note": "[compound 29]", "values": [{"measurement": "pest or weed control at 1000 ppm", "setting": "Plutella xylostella", "result": "≥ 70", "unit": "%"}]}, {"compound": "Cc1cc(=O)n2nc(OC(C)c3ccc(C(F)(F)F)cc3)nc2n1Cc1ccc(Cl)nc1", "note": "(centres unmarked) [compound 106]", "values": [{"measurement": "pest or weed control at 1000 ppm", "setting": "Plutella xylostella; [3]", "result": "≥ 70", "unit": "%"}]}, {"compound": "Cc1cc(=O)n2nc([S+]([O-])CC(F)(F)F)nc2n1Cc1ccc(Cl)nc1", "note": "(centres unmarked) [compound 189]", "values": [{"measurement": "pest or weed control at 1000 ppm", "setting": "Plutella xylostella", "result": "≥ 70", "unit": "%"}]}, {"compound": "CSc1cc2n(Cc3ccc(Cl)nc3)c(C)c(C)c(=O)n2n1", "note": "[compound 236]", "values": [{"measurement": "pest or weed control at 1000 ppm", "setting": "Plutella xylostella", "result": "≥ 70", "unit": "%"}]}, {"compound": "CSc1cc2n(Cc3ccc(Cl)nc3)c(C)c(F)c(=O)n2n1", "note": "[compound 237]", "values": [{"measurement": "pest or weed control at 1000 ppm", "setting": "Plutella xylostella", "result": "≥ 70", "unit": "%"}]}, {"compound": "Cc1cc(=O)n2nc(C(F)F)cc2n1Cc1ccc(Cl)nc1", "note": "[compound 241]", "values": [{"measurement": "pest or weed control at 1000 ppm", "setting": "Plutella xylostella", "result": "≥ 70", "unit": "%"}]}, {"compound": "CCSc1cc2n(Cc3ccc(Cl)nc3)c(C)cc(=O)n2n1", "note": "[compound 243]", "values": [{"measurement": "pest or weed control at 1000 ppm", "setting": "Plutella xylostella", "result": "≥ 70", "unit": "%"}]}, {"compound": "spinetoram", "values": [{"measurement": "Insect death ratio (%)", "setting": "Chilo suppressalis; 1 ppm", "result": 100, "unit": "%"}]}, {"compound": "spinosad", "values": [{"measurement": "Insect death ratio (%)", "setting": "Chilo suppressalis; 1 ppm", "result": 70, "unit": "%"}]}]}
